Test results taken from BindingDB's records for doi:10.1016/0960-894X(94)00458-R (Tumor Biology Center, 1995).
pIC50: −log10 of the molar value.

Columns and labels:
[1] = The activity of cGPK, activated by cGMP, is measured by its ability to transfer phosphate from [gamma-32P]ATP to histone.
[2] = molecular target: Myosin light chain kinase, smooth muscle (Gallus gallus, UniProt P11799); assay: MLCK assay; conditions: pH 7.2; 30 °C
Protocol: The activity of MLCK is measured by its ability to transfer 32P from [gamma-32P]ATP to myosin light-chain.

[3] = molecular target: cAMP-dependent protein kinase catalytic subunit alpha (Bos taurus, UniProt P00517); assay: PKA assay
Protocol: The activity of PKA, activated by cAMP, is measured by its ability to transfer phosphate from [gamma-32P]ATP to histone.

[4] = molecular target: T1, cGMP-dependent protein kinase 1 (Bos taurus, UniProt P00516); assay: cGPK assay
T1 sequence (P00516 whole entry): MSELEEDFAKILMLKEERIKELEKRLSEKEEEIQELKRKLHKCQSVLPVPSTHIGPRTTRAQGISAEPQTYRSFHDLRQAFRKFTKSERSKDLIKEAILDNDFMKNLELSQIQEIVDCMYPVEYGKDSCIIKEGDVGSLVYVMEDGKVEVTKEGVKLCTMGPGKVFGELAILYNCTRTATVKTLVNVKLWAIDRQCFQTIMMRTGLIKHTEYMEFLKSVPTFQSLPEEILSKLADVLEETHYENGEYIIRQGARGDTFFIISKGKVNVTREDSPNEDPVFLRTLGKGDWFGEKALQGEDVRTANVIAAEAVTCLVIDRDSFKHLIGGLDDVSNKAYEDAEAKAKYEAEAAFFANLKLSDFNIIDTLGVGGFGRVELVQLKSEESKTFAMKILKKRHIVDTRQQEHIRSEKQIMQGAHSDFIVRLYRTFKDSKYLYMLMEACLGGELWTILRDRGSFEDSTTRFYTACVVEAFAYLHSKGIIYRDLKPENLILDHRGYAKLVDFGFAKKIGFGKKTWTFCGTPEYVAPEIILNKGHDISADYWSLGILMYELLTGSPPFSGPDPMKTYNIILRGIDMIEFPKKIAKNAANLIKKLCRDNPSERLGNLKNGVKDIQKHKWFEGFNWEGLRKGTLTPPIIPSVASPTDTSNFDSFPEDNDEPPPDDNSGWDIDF
Protocol: The activity of cGPK, activated by cGMP, is measured by its ability to transfer phosphate from [gamma-32P]ATP to histone.

[5] = molecular target: Protein kinase C beta type (Rattus norvegicus, UniProt P68403); assay: MLCK assay
Sequence of Protein kinase C beta type (P68403 whole entry): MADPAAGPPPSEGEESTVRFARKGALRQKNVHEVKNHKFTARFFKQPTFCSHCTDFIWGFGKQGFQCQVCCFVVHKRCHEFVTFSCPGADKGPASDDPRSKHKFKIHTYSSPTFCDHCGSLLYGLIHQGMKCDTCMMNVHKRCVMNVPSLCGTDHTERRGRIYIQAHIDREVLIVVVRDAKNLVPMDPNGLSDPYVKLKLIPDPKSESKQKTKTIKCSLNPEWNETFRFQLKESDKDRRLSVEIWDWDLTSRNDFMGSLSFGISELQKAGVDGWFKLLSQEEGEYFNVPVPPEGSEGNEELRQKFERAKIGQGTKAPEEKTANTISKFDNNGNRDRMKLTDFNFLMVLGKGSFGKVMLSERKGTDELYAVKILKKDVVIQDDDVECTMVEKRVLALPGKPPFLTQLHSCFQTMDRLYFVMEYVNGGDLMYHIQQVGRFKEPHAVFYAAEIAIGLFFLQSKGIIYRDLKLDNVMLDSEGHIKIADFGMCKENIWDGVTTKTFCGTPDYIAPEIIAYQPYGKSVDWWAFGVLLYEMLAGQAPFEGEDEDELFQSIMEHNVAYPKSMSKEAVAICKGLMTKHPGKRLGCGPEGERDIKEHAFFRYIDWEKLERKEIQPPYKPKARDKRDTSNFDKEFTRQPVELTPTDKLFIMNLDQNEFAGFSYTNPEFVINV

[6] = molecular target: Tyrosine-protein phosphatase non-receptor type 2 (Mus musculus); assay: TPK assay
Protocol: The activity of TPK is measured by its ability to transfer 32P from [gamma-32P]ATP to Poly(Glu,Tyr; 4:l).

Sequence of Myosin light chain kinase, smooth muscle (P11799 whole entry): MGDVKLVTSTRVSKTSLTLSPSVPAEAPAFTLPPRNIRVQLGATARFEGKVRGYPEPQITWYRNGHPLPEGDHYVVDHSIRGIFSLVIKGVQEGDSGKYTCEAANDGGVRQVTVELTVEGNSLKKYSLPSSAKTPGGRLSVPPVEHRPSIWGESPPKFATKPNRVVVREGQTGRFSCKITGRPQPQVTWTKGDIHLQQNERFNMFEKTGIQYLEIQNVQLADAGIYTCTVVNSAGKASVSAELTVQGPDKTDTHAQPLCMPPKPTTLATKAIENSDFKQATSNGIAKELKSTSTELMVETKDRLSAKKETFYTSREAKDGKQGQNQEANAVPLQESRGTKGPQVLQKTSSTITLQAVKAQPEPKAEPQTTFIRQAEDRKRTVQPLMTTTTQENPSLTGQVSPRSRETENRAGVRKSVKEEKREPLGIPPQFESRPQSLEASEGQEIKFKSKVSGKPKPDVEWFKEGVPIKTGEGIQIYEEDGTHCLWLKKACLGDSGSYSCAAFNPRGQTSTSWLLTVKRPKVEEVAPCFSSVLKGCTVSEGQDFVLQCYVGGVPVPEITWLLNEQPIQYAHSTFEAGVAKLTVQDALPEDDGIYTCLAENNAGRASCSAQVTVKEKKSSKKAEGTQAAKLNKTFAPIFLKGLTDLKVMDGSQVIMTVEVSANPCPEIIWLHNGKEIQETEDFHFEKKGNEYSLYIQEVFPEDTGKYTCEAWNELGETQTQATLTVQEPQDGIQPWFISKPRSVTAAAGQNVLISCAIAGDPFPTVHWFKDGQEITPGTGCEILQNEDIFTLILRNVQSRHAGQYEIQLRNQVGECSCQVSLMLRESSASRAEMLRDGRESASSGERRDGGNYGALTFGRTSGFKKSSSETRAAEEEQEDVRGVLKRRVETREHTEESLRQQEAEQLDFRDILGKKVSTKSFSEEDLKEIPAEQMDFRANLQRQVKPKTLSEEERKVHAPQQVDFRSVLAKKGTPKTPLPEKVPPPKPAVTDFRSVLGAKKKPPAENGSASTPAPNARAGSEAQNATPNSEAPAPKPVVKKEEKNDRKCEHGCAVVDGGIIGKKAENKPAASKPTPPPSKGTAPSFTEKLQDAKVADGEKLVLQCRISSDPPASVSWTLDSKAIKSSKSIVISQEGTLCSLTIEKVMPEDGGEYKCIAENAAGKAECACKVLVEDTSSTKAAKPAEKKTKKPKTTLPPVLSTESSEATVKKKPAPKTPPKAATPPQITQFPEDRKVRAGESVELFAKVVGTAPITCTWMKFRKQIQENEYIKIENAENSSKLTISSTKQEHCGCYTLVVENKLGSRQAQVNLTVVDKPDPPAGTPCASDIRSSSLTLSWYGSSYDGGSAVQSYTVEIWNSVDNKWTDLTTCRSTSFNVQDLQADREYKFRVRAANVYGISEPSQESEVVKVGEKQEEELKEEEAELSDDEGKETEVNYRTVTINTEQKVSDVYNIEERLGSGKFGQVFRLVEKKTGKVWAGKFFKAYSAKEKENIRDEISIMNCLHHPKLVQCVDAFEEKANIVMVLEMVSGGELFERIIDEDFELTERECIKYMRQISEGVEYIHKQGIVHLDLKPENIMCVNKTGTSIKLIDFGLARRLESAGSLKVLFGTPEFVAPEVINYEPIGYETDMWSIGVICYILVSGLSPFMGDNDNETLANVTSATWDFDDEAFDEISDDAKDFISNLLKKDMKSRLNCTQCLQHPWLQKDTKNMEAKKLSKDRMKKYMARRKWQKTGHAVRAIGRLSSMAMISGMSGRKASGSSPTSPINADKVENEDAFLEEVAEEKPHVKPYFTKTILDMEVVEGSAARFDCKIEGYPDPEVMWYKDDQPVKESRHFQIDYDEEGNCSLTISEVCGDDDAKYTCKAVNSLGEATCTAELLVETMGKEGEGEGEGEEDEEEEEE

pIC50 [1] | pIC50 [2] | pIC50 [3] | pIC50 [4] | pIC50 [5] | pIC50 [6] | Structure (SMILES)
7.49 |  |  |  |  |  | COc1ccc2c(c1)c1c3c(c4c5ccccc5n(C)c4c1n2CCCC#N)C(=O)NC3=O [3-(9-methoxy-13-methyl-5,7-dioxo-6,7,12,13-tetrahydro-5H-indolo[2,3-a]pyrrolo[3,4-c]carbazol-12-yl)propyl cyanide]
6.92 | 6.92 |  |  |  |  | CN(C)CC(O)Cn1c2ccccc2c2c3c(c4c5ccccc5n(C)c4c21)C(=O)NC3=O (stereo unspecified) [23-[3-(dimethylamino)-2-hydroxypropyl]-3-methyl-3,13,23-triazahexacyclo[14.7.0.0^{2,10}.0^{4,9}.0^{11,15}.0^{17,22}]tricosa-1(16),2(10),4,6,8,11(15),17(22),18,20-nonaene-12,14-dione]
7.26 |  | < 4.52 |  |  |  | Cn1c2ccccc2c2c3c(c4c5ccccc5n(CCC#N)c4c21)C(=O)NC3=O [3-{23-methyl-12,14-dioxo-3,13,23-triazahexacyclo[14.7.0.0^{2,10}.0^{4,9}.0^{11,15}.0^{17,22}]tricosa-1(16),2(10),4(9),5,7,11(15),17,19,21-nonaen-3-yl}propanenitrile]
6.60 | 6.60 |  |  |  |  | CN(C)CCCn1c2ccccc2c2c3c(c4c5ccccc5n(C)c4c21)C(=O)NC3 [23-[3-(dimethylamino)propyl]-3-methyl-3,13,23-triazahexacyclo[14.7.0.0^{2,10}.0^{4,9}.0^{11,15}.0^{17,22}]tricosa-1(16),2(10),4,6,8,11(15),17(22),18,20-nonaen-12-one]
7.74 | 7.74 |  |  |  |  | Cn1c2ccccc2c2c3c(c4c5ccccc5n(CCCN)c4c21)CNC3=O [23-(3-aminopropyl)-3-methyl-3,13,23-triazahexacyclo[14.7.0.0^{2,10}.0^{4,9}.0^{11,15}.0^{17,22}]tricosa-1(16),2(10),4,6,8,11(15),17(22),18,20-nonaen-12-one]
 | 7.49 | 6.70 | 6.00 | 8.30 |  | COc1ccc2c(c1)c1c3c(c4c5ccccc5n(CCCC#N)c4c1n2C)C(=O)NC3=O [4-{19-methoxy-23-methyl-12,14-dioxo-3,13,23-triazahexacyclo[14.7.0.0^{2,10}.0^{4,9}.0^{11,15}.0^{17,22}]tricosa-1(16),2(10),4(9),5,7,11(15),17,19,21-nonaen-3-yl}butanenitrile]
5.04 |  |  |  |  |  | COc1ccc2c(c1)c1c3c(c4c5ccccc5n(C)c4c1n2CC(O)CN(C)C)C(=O)NC3 (stereo unspecified) [12-(3-dimethylamino-2-hydroxypropyl)-9-methoxy-13-methyl-6,7,12,13-tetrahydro-5H-indolo[2,3-a]pyrrolo[3,4-c]carbazol-5-one]
6.92 |  |  |  |  |  | COc1ccc2c(c1)c1c3c(c4c5ccccc5n(C)c4c1n2CC(O)CN(C)C)C(=O)NC3=O (stereo unspecified) [13-(3-dimethylamino-2-hydroxypropyl)-3-methoxy-12-methyl-6,7,12,13-tetrahydro-5H-indolo[2,3-a]pyrrolo[3,4-c]carbazole-5,7-dione]
6.51 | 7.51 |  |  |  |  | CN(C)CCCn1c2ccc(O)cc2c2c3c(c4c5cc(O)ccc5[nH]c4c21)C(=O)NC3 [23-[3-(dimethylamino)propyl]-7,19-dihydroxy-3,13,23-triazahexacyclo[14.7.0.0^{2,10}.0^{4,9}.0^{11,15}.0^{17,22}]tricosa-1(16),2(10),4,6,8,11(15),17(22),18,20-nonaen-12-one]
7.31 | 6.70 | 6.40 | < 5.52 | 8.70 | < 5.00 | COc1ccc2c(c1)c1c3c(c4c5ccccc5n(CCC#N)c4c1n2C)C(=O)NC3=O [3-{19-methoxy-23-methyl-12,14-dioxo-3,13,23-triazahexacyclo[14.7.0.0^{2,10}.0^{4,9}.0^{11,15}.0^{17,22}]tricosa-1(16),2(10),4(9),5,7,11(15),17,19,21-nonaen-3-yl}propanenitrile]
6.70 | 7.31 |  |  | 7.80 |  | COc1ccc2c(c1)c1c3c(c4c5ccccc5n(C)c4c1n2CCC#N)C(=O)NC3=O [3-{7-methoxy-23-methyl-12,14-dioxo-3,13,23-triazahexacyclo[14.7.0.0^{2,10}.0^{4,9}.0^{11,15}.0^{17,22}]tricosa-1(16),2(10),4(9),5,7,11(15),17,19,21-nonaen-3-yl}propanenitrile]
6.41 | 6.41 | < 5.00 |  |  |  | CN(C)CCCn1c2ccccc2c2c3c(c4c5ccccc5[nH]c4c21)C(=O)NC3 [23-[3-(dimethylamino)propyl]-3,13,23-triazahexacyclo[14.7.0.0^{2,10}.0^{4,9}.0^{11,15}.0^{17,22}]tricosa-1(16),2(10),4,6,8,11(15),17(22),18,20-nonaen-12-one]
7.52 | 7.52 |  |  |  |  | Cn1c2ccc(O)cc2c2c3c(c4c5cc(O)ccc5n(CCC#N)c4c21)CNC3=O [3-{7,19-dihydroxy-23-methyl-14-oxo-3,13,23-triazahexacyclo[14.7.0.0^{2,10}.0^{4,9}.0^{11,15}.0^{17,22}]tricosa-1(16),2(10),4(9),5,7,11(15),17,19,21-nonaen-3-yl}propanenitrile]
 | 6.92 | 6.29 | 5.32 | 8.40 |  | COc1ccc2c(c1)c1c3c(c4c5ccccc5n(CC(O)CN(C)C)c4c1n2C)C(=O)NC3=O (stereo unspecified) [23-[3-(dimethylamino)-2-hydroxypropyl]-7-methoxy-3-methyl-3,13,23-triazahexacyclo[14.7.0.0^{2,10}.0^{4,9}.0^{11,15}.0^{17,22}]tricosa-1(16),2(10),4,6,8,11(15),17(22),18,20-nonaene-12,14-dione]
5.80 | 5.80 |  |  |  | < 5.00 | COc1ccc2c(c1)c1c3c(c4c5cc(OC)ccc5n(CCC#N)c4c1n2C)CNC3=O [3-{7,19-dimethoxy-23-methyl-14-oxo-3,13,23-triazahexacyclo[14.7.0.0^{2,10}.0^{4,9}.0^{11,15}.0^{17,22}]tricosa-1(16),2(10),4(9),5,7,11(15),17,19,21-nonaen-3-yl}propanenitrile]
5.26 | 5.26 |  |  |  | < 4.00 | CN(C)CC(O)Cn1c2ccccc2c2c3c(c4c5ccccc5n(C)c4c21)C(=O)NC3 (stereo unspecified) [Indolocarbazole deriv.]
6.74 |  |  |  |  |  | COc1ccc2c(c1)c1c3c(c4c5cc(OC)ccc5n(CCC#N)c4c1n2C)C(=O)NC3=O [3-{7,19-dimethoxy-23-methyl-12,14-dioxo-3,13,23-triazahexacyclo[14.7.0.0^{2,10}.0^{4,9}.0^{11,15}.0^{17,22}]tricosa-1(16),2(10),4(9),5,7,11(15),17,19,21-nonaen-3-yl}propanenitrile]
6.66 | 6.66 |  |  |  |  | COc1ccc2[nH]c3c(c4c(c5c6cc(OC)ccc6n(CCCN(C)C)c35)CNC4=O)c2c1 [23-[3-(dimethylamino)propyl]-7,19-dimethoxy-3,13,23-triazahexacyclo[14.7.0.0^{2,10}.0^{4,9}.0^{11,15}.0^{17,22}]tricosa-1(16),2(10),4,6,8,11(15),17(22),18,20-nonaen-12-one]
5.24 |  |  |  |  | < 5.00 | Cn1c2ccccc2c2c3c(c4c5ccccc5n(CCC#N)c4c21)CNC3=O [Indolocarbazole deriv.]
 | 5.04 | 4.82 | 4.64 | 7.07 | < 5.00 | COc1ccc2c(c1)c1c3c(c4c5ccccc5n(CC(O)CN(C)C)c4c1n2C)CNC3=O (stereo unspecified) [23-[3-(dimethylamino)-2-hydroxypropyl]-7-methoxy-3-methyl-3,13,23-triazahexacyclo[14.7.0.0^{2,10}.0^{4,9}.0^{11,15}.0^{17,22}]tricosa-1(16),2(10),4,6,8,11(15),17(22),18,20-nonaen-12-one]
